US20240000872A1, “NOVEL BACTERIOPHAGE THAT LYSES ACINETOBACTER GENUS BACTERIA HAVING RESISTANCE TO ANTIBIOTICS” (priority 2020, published 2024)

Test system: Acinetobacter baumannii strains
Experiment: Antibiotic susceptibility test (CLSI disk diffusion test method, read per CLSI 2016)
Assay type: cell-based
Method: Strain identification was performed using a kit such as AT 32 GN system (bioMérieux, Marcy l'Etoile, France). […] In Table 2 below, S, I, and R are the results obtained by evaluating susceptibility to the antibacterial agents, in which ‘S’ means susceptible, ‘I’ means intermediate, and ‘R’ means resistant.
Strain identification was performed using a kit such as ATB 32 GN system (bioMédrieux, Marcy l'Etoile, France). […] In Table 6 below, S, I, and R are the results obtained by evaluating susceptibility to the antibacterial agents, in which ‘S’ means susceptible, ‘I’ means intermediate, and ‘R’ means resistant.
Strain identification was performed using a kit such as ATB 32 GN system (bioMérieux, Marcy l'Etoile, France). […] In Table 10 below, S, I, and R are the results obtained by evaluating susceptibility to the antibacterial agents, in which ‘S’ means susceptible, T means intermediate, and ‘R’ means resistant.

NCC[C@H](O)C(=O)N[C@@H]1C[C@H](N)[C@@H](O[C@H]2O[C@H](CN)[C@@H](O)[C@H](O)[C@H]2O)[C@H](O)[C@H]1O[C@H]1O[C@H](CO)[C@@H](O)[C@H](N)[C@H]1O [Amikacin, amikacin]
R: antibiotic susceptibility S/I/R (host strain YMC16/01/R198) | susceptibility category (S/I/R) (host strain YMC16/01/R198) | antibiotic susceptibility S/I/R (host strain YMC16/01/R353) | susceptibility category (S/I/R) (host strain YMC16/01/R353) | antibiotic susceptibility S/I/R (host strain YMC16/01/R397) | susceptibility category (S/I/R) (host strain YMC16/01/R397) | antibiotic susceptibility S/I/R (host strain YMC16/01/R405) | susceptibility category (S/I/R) (host strain YMC16/01/R405) | antibiotic susceptibility S/I/R (host strain YMC16/03/R4461) | susceptibility category (S/I/R) (host strain YMC16/03/R4461) | antibiotic susceptibility S/I/R (host strain YMC16/07/R2512) | susceptibility category (S/I/R) (host strain YMC16/07/R2512) | antibiotic susceptibility S/I/R (host strain YMC16/09/R2471) | susceptibility category (S/I/R) (host strain YMC16/09/R2471) | antibiotic susceptibility S/I/R (host strain YMC16/10/R2537) | susceptibility category (S/I/R) (host strain YMC16/10/R2537) | antibiotic susceptibility S/I/R (host strain YMC16/12/B11422) | susceptibility category (S/I/R) (host strain YMC16/12/B11422) | antibiotic susceptibility S/I/R (host strain YMC16/12/B11449) | susceptibility category (S/I/R) (host strain YMC16/12/B11449) | antibiotic susceptibility S/I/R (host strain YMC16/12/B13325) | susceptibility category (S/I/R) (host strain YMC16/12/B13325) | antibiotic susceptibility S/I/R (host strain YMC16/12/P503) | susceptibility category (S/I/R) (host strain YMC16/12/P503) | antibiotic susceptibility S/I/R (host strain YMC16/12/R4637) | susceptibility category (S/I/R) (host strain YMC16/12/R4637) | antibiotic susceptibility S/I/R (host strain YMC17/01/B8053) | susceptibility category (S/I/R) (host strain YMC17/01/B8053) | antibiotic susceptibility S/I/R (host strain YMC17/01/B10087) | susceptibility category (S/I/R) (host strain YMC17/01/B10087) | antibiotic susceptibility S/I/R (host strain YMC17/01/B13454) | susceptibility category (S/I/R) (host strain YMC17/01/B13454) | antibiotic susceptibility S/I/R (host strain YMC17/01/P518) | susceptibility category (S/I/R) (host strain YMC17/01/P518) | antibiotic susceptibility S/I/R (host strain YMC17/01/R2812) | susceptibility category (S/I/R) (host strain YMC17/01/R2812) | antibiotic susceptibility S/I/R (host strain YMC17/02/B14) | susceptibility category (S/I/R) (host strain YMC17/02/B14) | antibiotic susceptibility S/I/R (host strain YMC17/02/B721) | susceptibility category (S/I/R) (host strain YMC17/02/B721) | antibiotic susceptibility S/I/R (host strain YMC17/02/B4039) | susceptibility category (S/I/R) (host strain YMC17/02/B4039) | antibiotic susceptibility S/I/R (host strain YMC17/02/B4520) | susceptibility category (S/I/R) (host strain YMC17/02/B4520) | antibiotic susceptibility S/I/R (host strain YMC17/02/B8414) | susceptibility category (S/I/R) (host strain YMC17/02/B8414) | antibiotic susceptibility S/I/R (host strain YMC17/02/R541) | susceptibility category (S/I/R) (host strain YMC17/02/R541) | antibiotic susceptibility S/I/R (host strain YMC17/02/R2392) | susceptibility category (S/I/R) (host strain YMC17/02/R2392) | antibiotic susceptibility S/I/R (host strain YMC17/03/B4730) | susceptibility category (S/I/R) (host strain YMC17/03/B4730) | antibiotic susceptibility S/I/R (host strain YMC17/03/B5000) | susceptibility category (S/I/R) (host strain YMC17/03/B5000) | antibiotic susceptibility S/I/R (host strain YMC17/03/P971) | susceptibility category (S/I/R) (host strain YMC17/03/P971) | antibiotic susceptibility S/I/R (host strain YMC17/03/R348) | susceptibility category (S/I/R) (host strain YMC17/03/R348) | antibiotic susceptibility S/I/R (host strain YMC17/03/R585) | susceptibility category (S/I/R) (host strain YMC17/03/R585) | antibiotic susceptibility S/I/R (host strain YMC17/03/R1888) | susceptibility category (S/I/R) (host strain YMC17/03/R1888) | antibiotic susceptibility S/I/R (host strain YMC17/03/R3279) | susceptibility category (S/I/R) (host strain YMC17/03/R3279) | antibiotic susceptibility S/I/R (host strain YMC17/03/R4077) | susceptibility category (S/I/R) (host strain YMC17/03/R4077) | antibiotic susceptibility S/I/R (host strain YMC17/03/R4607) | susceptibility category (S/I/R) (host strain YMC17/03/R4607) | antibiotic susceptibility S/I/R (host strain YMC17/04/R488) | susceptibility category (S/I/R) (host strain YMC17/04/R488) | antibiotic susceptibility S/I/R (host strain YMC17/04/R640) | susceptibility category (S/I/R) (host strain YMC17/04/R640) | antibiotic susceptibility S/I/R (host strain YMC/17/05/R1095) | susceptibility category (S/I/R) (host strain YMC/17/05/R1095)
S: antibiotic susceptibility S/I/R (host strain YMC17/01/B12075) | susceptibility category (S/I/R) (host strain YMC17/01/B12075) | antibiotic susceptibility S/I/R (host strain YMC17/02/B87) | susceptibility category (S/I/R) (host strain YMC17/02/B87) | antibiotic susceptibility S/I/R (host strain YMC17/02/B4864) | susceptibility category (S/I/R) (host strain YMC17/02/B4864) | antibiotic susceptibility S/I/R (host strain YMC17/02/P523) | susceptibility category (S/I/R) (host strain YMC17/02/P523)
